Results taken from article PMC11554998, “Machine learning-aided search for ligands of P2Y6 and other P2Y receptors” (Purinergic Signalling, 2024).

Key:
[1] = target: T1, P2Y14 receptor (hP2Y14R) (Homo sapiens, UniProt Q15391); assay: competitive binding vs fluorescent antagonist MRS4174, whole CHO-hP2Y14R cells, flow cytometry; single concentration […]; assay type: cell-based; conditions: read-out: P2Y14, % inhibition at 100 μM (n = 3)
T1 construct: gene P2RY14
T1 sequence (Q15391 1-338): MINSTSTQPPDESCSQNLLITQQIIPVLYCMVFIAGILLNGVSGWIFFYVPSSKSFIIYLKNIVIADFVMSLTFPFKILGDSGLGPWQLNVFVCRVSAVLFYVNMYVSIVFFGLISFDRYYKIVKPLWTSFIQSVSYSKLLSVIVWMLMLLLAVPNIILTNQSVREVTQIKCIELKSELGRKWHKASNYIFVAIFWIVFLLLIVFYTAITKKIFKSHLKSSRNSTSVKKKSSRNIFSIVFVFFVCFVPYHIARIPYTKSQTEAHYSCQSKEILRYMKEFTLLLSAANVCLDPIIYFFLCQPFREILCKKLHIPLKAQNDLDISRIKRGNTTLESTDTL

[2] = target: T2, P2Y6 receptor (hP2Y6R) (Homo sapiens, UniProt Q15077); assay: FLIPR calcium mobilization, inhibition of UDP ([…]) response in […]1-hP2Y6R cells; assay type: cell-based; conditions: read-out: P2Y6R, mean IC50 ± SEM (μM) or % inhibition at 400 μM^a
T2 construct: gene P2RY6
T2 sequence (Q15077 whole entry): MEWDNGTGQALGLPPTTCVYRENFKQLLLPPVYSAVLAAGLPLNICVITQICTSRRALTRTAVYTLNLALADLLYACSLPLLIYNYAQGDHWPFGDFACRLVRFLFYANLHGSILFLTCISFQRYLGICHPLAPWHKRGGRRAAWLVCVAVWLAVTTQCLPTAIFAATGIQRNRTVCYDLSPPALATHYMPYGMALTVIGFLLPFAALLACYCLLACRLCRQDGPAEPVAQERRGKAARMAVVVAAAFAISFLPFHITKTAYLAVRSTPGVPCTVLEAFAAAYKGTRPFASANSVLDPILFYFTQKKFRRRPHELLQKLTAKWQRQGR

SMILES	inhibition at 100 µM [1] [%]	IC50 [2] [µM]
Cc1cc(C(=O)Nc2cc(Oc3ccc4nc(NC(=O)C5CC5)cn4n3)ccc2C)n(C)n1 [TAK-593]	50 ± 4	
COc1cccc([C@@H](Oc2ccc3c(cnn3-c3ccc(F)cc3)c2)[C@H](C)NC(=O)C(F)(F)F)c1 [AZD5423]		574 ± 181
CCNC(=O)c1cc2c(-c3cc(C(C)(C)O)ccc3Oc3c(C)cc(F)cc3C)cn(C)c(=O)c2[nH]1 [ABBV-744]		75.7 ± 11.5
